Laboratory results published in patent US12564559B2, “Combinations of LSD1 inhibitors for use in the treatment of solid tumors” (Oryzon Genomics, S.A., priority 2016, dated 2026).
Like-named read-outs stand apart in the source and are kept apart here.

Key:
NCI-H69 = experiment: Cell response to LSD1 inhibition, SCLC cell line cultured 4 days (Example 5); type: cell-based, human; settings: NCI-H69, SubType C; for EC50: Homo sapiens, 96 h
Excerpt: (§1) As a positive control for cytotoxicity the Hsp90 inhibitor 17-N-allylamino-17-demethoxygeldanamycin (17-AAG, a geldanamycin analogue) was used as positive control in serial dilution.

NCI-H187 = experiment: as above; type: cell-based, human; settings: NCI-H187, SubType C; for EC50: Homo sapiens, 96 h
Excerpt: as §1

NCI-H1048 = experiment: as above; type: cell-based, human; settings: NCI-H1048, SubType V; for EC50: Homo sapiens, 96 h
Excerpt: as §1

SBC-5 = experiment: as above; type: cell-based, human; settings: SBC-5, SubType (V); for EC50: Homo sapiens, 96 h
Excerpt: as §1

NCI-H2081 = experiment: as above; type: cell-based, human; settings: NCI-H2081, SubType C; for EC50: Homo sapiens, 96 h
Excerpt: as §1

NCI-H2171 = experiment: as above; type: cell-based, human; settings: NCI-H2171, SubType V; for EC50: Homo sapiens, 96 h
Excerpt: as §1

NCI-H2227 = experiment: as above; type: cell-based, human; settings: NCI-H2227, SubType C; for EC50: Homo sapiens, 96 h
Excerpt: as §1

NCI-H446 = experiment: as above; type: cell-based, human; settings: NCI-H446, SubType V; for EC50: Homo sapiens, 96 h
Excerpt: as §1

NCI-H2029 = experiment: as above; type: cell-based, human; settings: NCI-H2029, SubType (C); for EC50: Homo sapiens, 96 h
Excerpt: as §1

NCI-H1417 = experiment: as above; type: cell-based, human; settings: NCI-H1417, SubType C; for EC50: Homo sapiens, 96 h
Excerpt: as §1

NCI-H748 = experiment: as above; type: cell-based, human; settings: NCI-H748, SubType C; for EC50: Homo sapiens, 96 h
Excerpt: as §1

DMS-114 = experiment: as above; type: cell-based, human; settings: DMS-114, SubType V; for EC50: Homo sapiens, 96 h
Excerpt: as §1

NCI-H345 = experiment: as above; type: cell-based, human; settings: NCI-H345, SubType C; for EC50: Homo sapiens, 96 h
Excerpt: as §1

SHP-77 = experiment: as above; type: cell-based, human; settings: SHP-77, SubType V(C); for EC50: Homo sapiens, SHP77, 96 h
Excerpt: as §1

NCI-H82 = experiment: as above; type: cell-based, human; settings: NCI-H82, SubType V; for EC50: Homo sapiens, 96 h
Excerpt: as §1

NCI-H1876 [1] = experiment: as above; type: cell-based, human; settings: NCI-H1876, SubType C; for EC50: Homo sapiens, 96 h
Excerpt: as §1

NCI-H146 = experiment: as above; type: cell-based, human; settings: NCI-H146, SubType C; for EC50: Homo sapiens, 96 h
Excerpt: as §1

NCI-H526 = experiment: as above; type: cell-based, human; settings: NCI-H526, SubType V; for EC50: Homo sapiens, 96 h
Excerpt: as §1

NCI-H510A = experiment: as above; type: cell-based, human; settings: SubType C; for EC50: Homo sapiens, 96 h
Excerpt: as §1

NCI-H526 model = experiment: NCI-H526 xenograft model, combination with etoposide and carboplatin (Example 4, FIG. 2B); type: in vivo, nu/nu mice; settings: added at 20 upk 5/2 for three weeks to SOC (etoposide + carboplatin)
Description: 8-12-week old nu/nu mice were injected with 1×10^7 H526 cells or […] SHP-77 resuspended in 100 μL of 1:1 mixture of Matrigel® and PBS. Tumors were staged at 100-150 mm^3 animals and distributed into dosing groups. […] Carboplatin was administered i.p. at a dose of 100 mpk weekly for three weeks (qwkx3). […] Tumor volume was measure biweekly using a digital caliber. The endpoint of the experiment was a tumor volume of 1000 mm^3 or 90 days, whichever came first. Statistical analysis was performed using unpaired t-test and Gehan-Breslow-Wilcoxon test.

NCI-H510 = experiment: Growth Inhibition (ATPLite), SCLC cell line treated for 7 days (Example 1); type: cell-based, human; settings: NCI-H510, “classic” neuroendocrine, FIG. 1B
Description: (§2) Once cells have been expanded and divided at their expected doubling times, screening was started. Cells were seeded in growth media in black 384-well tissue culture treated plates at 500 cells per well (except where noted in Analyzer). Cells were equilibrated in assay plates via centrifugation and placed in incubators attached to the Dosing Modules at 37° C. for twenty-four hours before treatment. […] These Tzero (T0) plates were read using ultra-sensitive luminescence on Envision Plate Readers.

NCI-H1876 [2] = experiment: as above; type: cell-based, human; settings: NCI-H1876, “classic” neuroendocrine, FIG. 1A
Description: as §2

H510A xenograft model = experiment: NCI-H510A xenograft model, in vivo tumor growth inhibition (Example 9, FIG. 9); parameters: species or system athymic nude mice; settings: 40 μg per kg five days on/two days off; after 21 days of dosing; compared to untreated controls
Description: 7-8-week old athymic nude mice animals were injected with 5×10^6 H510A cells resuspended in 100 μL of 1:1 mixture of Matrigel® matrix (Corning Inc., Tewksbury/MA, C. S. Hughes et al.^113) and PBS. Tumors were staged at 200-300 mm^3 animals and distributed into dosing groups. […] Tumor volume was measure biweekly using a digital caliber. The study was concluded when mean tumor volume within control group reached 2000 mm^3 or 28 days post-staging. Statistical analysis was performed using unpaired t-test.

[3] = read-out: Sensitivity to LSD1 inh.

`N[C@H]1CC[C@H](N[C@@H]2C[C@H]2c2ccccc2)CC1` [listing 1 of 2 here] was tested, and the EC50 (NCI-H69; read-out: EC50) was 0.585 nM, the EC50 (NCI-H69; [3]) was less than 50 nM and the “Max. Response (%)” value (NCI-H69) was 44%. For the same compound, the EC50 (NCI-H187; read-out: EC50) was 0.136 nM, the EC50 (NCI-H187; [3]) was less than 50 nM and the “Max. Response (%)” value (NCI-H187) was 61%. For the same compound, the EC50 (NCI-H1048; read-out: EC50) was greater than 50 nM, the EC50 (NCI-H1048; [3]) was no less than 50 nM and the “Max. Response (%)” value (NCI-H1048) was 27%. The EC50 (SBC-5; read-out: EC50) was greater than 50 nM, the EC50 (SBC-5; [3]) was no less than 50 nM and the “Max. Response (%)” value (SBC-5) was 23%. The EC50 (NCI-H2081; read-out: EC50) was 0.92 nM, the EC50 (NCI-H2081; [3]) was less than 50 nM and the “Max. Response (%)” value (NCI-H2081) was 10%. The EC50 (NCI-H2171; read-out: EC50) was greater than 50 nM, the EC50 (NCI-H2171; [3]) was no less than 50 nM and the “Max. Response (%)” value (NCI-H2171) was 0%. The EC50 (NCI-H2227; read-out: EC50) was greater than 50 nM, the EC50 (NCI-H2227; [3]) was no less than 50 nM and the “Max. Response (%)” value (NCI-H2227) was 0%. The EC50 (NCI-H446; read-out: EC50) was greater than 50 nM, the EC50 (NCI-H446; [3]) was no less than 50 nM and the “Max. Response (%)” value (NCI-H446) was 7%. For the same compound, the EC50 (NCI-H2029; read-out: EC50) was greater than 50 nM, the EC50 (NCI-H2029; [3]) was no less than 50 nM and the “Max. Response (%)” value (NCI-H2029) was 0%. For the same compound, the EC50 (NCI-H1417; read-out: EC50) was 0.302 nM, the EC50 (NCI-H1417; [3]) was less than 50 nM and the “Max. Response (%)” value (NCI-H1417) was 77%. The EC50 (NCI-H748; read-out: EC50) was 0.3 nM, the EC50 (NCI-H748; [3]) was less than 50 nM and the “Max. Response (%)” value (NCI-H748) was 13%. The “Max. Response (%)” value (DMS-114) was 0%, the EC50 (DMS-114; read-out: EC50) was greater than 50 nM and the EC50 (DMS-114; [3]) was no less than 50 nM. The EC50 (NCI-H345; read-out: EC50) was 0.0275 nM, the EC50 (NCI-H345; [3]) was less than 50 nM and the “Max. Response (%)” value (NCI-H345) was 7%. For the same compound, the EC50 (SHP-77; read-out: EC50) was greater than 50 nM, the EC50 (SHP-77; [3]) was no less than 50 nM and the “Max. Response (%)” value (SHP-77) was 0%. For the same compound, the EC50 (NCI-H82; read-out: EC50) was greater than 50 nM, the EC50 (NCI-H82; [3]) was no less than 50 nM and the “Max. Response (%)” value (NCI-H82) was 0%. The EC50 (NCI-H1876 [1]; read-out: EC50) was 0.0432 nM, the EC50 (NCI-H1876 [1]; [3]) was less than 50 nM and the “Max. Response (%)” value (NCI-H1876 [1]) was 145%. For the same compound, the EC50 (NCI-H146; read-out: EC50) was 0.1 nM, the EC50 (NCI-H146; [3]) was less than 50 nM and the “Max. Response (%)” value (NCI-H146) was 48%. For the same compound, the EC50 (NCI-H526; read-out: EC50) was 0.632 nM, the EC50 (NCI-H526; [3]) was less than 50 nM and the “Max. Response (%)” value (NCI-H526) was 35%. The EC50 (NCI-H510A; read-out: EC50) was 0.315 nM, the EC50 (NCI-H510A; [3]) was less than 50 nM and the “Max. Response (%)” value (NCI-H510A) was 68%.
In the case of `N[C@H]1CC[C@H](N[C@@H]2C[C@H]2c2ccccc2)CC1` [listing 2 of 2 here], the “duration of tumor regression” value (NCI-H526 model) is reported as “improved the duration of tumor regression”, the “delay of tumor regrowth” value (NCI-H526 model; after the suspension of dosing) is reported as 30 days and the “sensitivity of cell line to the compound” value (NCI-H510) is reported as “high level of sensitivity”. For the same compound, the “sensitivity of cell line to the compound” value (NCI-H1876 [2]) was “high level of sensitivity” and the tumor growth inhibition (H510A xenograft model) was 34%.
